In patent publication US7811609B2, “Use of metal compounds to treat gastrointestinal infections” (priority 2000, dated 2010):
Converted amounts (≈) assume the structure as drawn. Read-outs that look alike come from different tables or passages of the source.

What was measured:
Helicobacter pylori = test: MIC against Helicobacter pylori by two fold serial dilution in growth medium; type: cell-based; conditions: for Average Selectivity Ratio: (Sum of MIC values against all bacteria except H. pylori ÷ No. of MIC values) ÷ MIC value for H. pylori; for MIC: STH broth, NCTC 11637 and seven clinical isolates; for MIC, H. pylori / MIC, H. pylori, first of two values: Table 4; for effect on the MIC of cobalt against H. pylori: weight ratio of 1:5 (cobalt:cysteine and/or methionine)
Experimental: Solutions of metal salts were prepared by dilution of the metal salt, optionally together with the ligand, in ultra-high-purity water. The pH values were adjusted to 7 with concentrated sodium hydroxide. The solutions were γ irradiated for 20 to 30 minutes for sterilisation, and then diluted ten fold in the bacterial growth medium to be used.
A gradient of concentration was obtained by two fold serial dilutions of the medium. The concentrations of metals were analysed by inductively coupled plasma spectrometry. Each dilution was inoculated with the different bacteria to be tested, by multi-point inoculating on the agar media, or suspending in the broth media.
The presence or absence of bacterial growth was reported within the concentration gradient and the minimum concentration of complex in the medium that inhibits totally the bacterial growth (MIC) was determined. The growth on an agar plate was detected by the presence of colonies, and by turbidity in the broth media. The bacteria were identified by the Gram morphology test. Helicobacter pylori growth was also confirmed by biochemical test on the catalase, urease and oxidase activity.

Echerichia coli = test: MIC against Echerichia coli; type: cell-based; conditions: Table 4
Staphylococcus aureus = test: MIC against Staphylococcus aureus; type: cell-based; conditions: Table 4
Klebsiella = test: MIC against Klebsiella; type: cell-based; conditions: Table 4
Pseudomonas aeruginosa [1] = test: MIC against Pseudomonas aeruginosa; type: cell-based; conditions: Table 4
Enterococcus faecalis = test: MIC against Enterococcus faecalis; type: cell-based; conditions: Table 4
Pseudomonas aeruginosa [2] = conditions: extrapolated from survival rates; protein broth then phosphate-buffered saline; Zhao et al 1998; cited from earlier work
[3] = system: Staphylococcus (aureus or Oxford Staph); conditions: extrapolated from survival rates; protein broth then phosphate-buffered saline; Zhao et al 1998; cited from earlier work
E. coli = conditions: extrapolated from survival rates; protein broth then phosphate-buffered saline; Zhao et al 1998; cited from earlier work
H. pylori [4] = conditions: H. pylori; cited from earlier work
H. pylori [5] = conditions: cited from earlier work

In the case of `O=C(O)CN(CCN(CC(=O)O)CC(=O)O)CC(=O)O` [EDTA, reference compound], the “effect of added ligand on the MIC / action of cobalt against H. pylori” value (Helicobacter pylori; ligand added to cobalt) is reported as “inhibited the action of cobalt against H. pylori”.

`[Cl][Fe]([Cl])[Cl]` [Fe^3+] showed an MIC, E. coli (Echerichia coli) greater than 32 µg/mL, an MIC, Staphylococcus (aureus or Oxford Staph) (Staphylococcus aureus) greater than 32 µg/mL and an MIC, Klebsiella (Klebsiella) greater than 32 µg/mL. The MIC, Pseudomonas aeruginosa (Pseudomonas aeruginosa [1]) was greater than 32 µg/mL, the “Average Selectivity Ratio” value (Helicobacter pylori) was 1.00 and the “MIC” value (Helicobacter pylori) was greater than 32 µg/mL. The “MIC, H. pylori” value (Helicobacter pylori) was >32/>32, the “MIC, H. pylori, first of two values” (Helicobacter pylori) was >32/>32 and the MIC, Ent faecalis (Enterococcus faecalis) was greater than 32 µg/mL.

With `[Cl][Mn][Cl]` [Mn^2+] the MIC, E. coli (Echerichia coli) was greater than 32 µg/mL, the MIC, Staphylococcus (aureus or Oxford Staph) (Staphylococcus aureus) was greater than 32 µg/mL and the MIC, Klebsiella (Klebsiella) was greater than 32 µg/mL. For the same compound, the MIC, Pseudomonas aeruginosa (Pseudomonas aeruginosa [1]) was greater than 32 µg/mL, the “Average Selectivity Ratio” value (Helicobacter pylori) was 1.00 and the “MIC” value (Helicobacter pylori) was greater than 32 µg/mL. For the same compound, the “MIC, H. pylori” value (Helicobacter pylori) was >32/>32, the “MIC, H. pylori, first of two values” (Helicobacter pylori) was >32/>32 and the MIC, Ent faecalis (Enterococcus faecalis) was greater than 32 µg/mL.

In the case of `[O]=[Mo](=[O])=[O]` [Mo^6+ (molybdenum oxide), molybdenum oxide, reference compound], the “MIC” value (Helicobacter pylori) is reported as greater than 32 µg/mL.

For `[Ni+2]` [Ni^2+], the MIC, E. coli (Echerichia coli) is listed as greater than 32 µg/mL, the MIC, Staphylococcus (aureus or Oxford Staph) (Staphylococcus aureus) is listed as greater than 32 µg/mL and the “MIC, Pseudomonas aeruginosa (footnote a)” value (Pseudomonas aeruginosa [2]) is listed as 22.89^a. The MIC, Klebsiella (Klebsiella) was greater than 32 µg/mL, the “MIC, Staphylococcus (aureus or Oxford Staph) (footnote a)” value [3] was 22.89^a and the MIC, Pseudomonas aeruginosa (Pseudomonas aeruginosa [1]) was greater than 32 µg/mL. The “Average Selectivity Ratio” value (Helicobacter pylori) was 0.89, the “MIC” value (Helicobacter pylori) was greater than 32 µg/mL and the “MIC, H. pylori” value (Helicobacter pylori) was >32/>32. For the same compound, the “MIC, H. pylori, first of two values” (Helicobacter pylori) was >32/>32, the “MIC, E. coli (footnote a)” value (E. coli) was 22.89^a and the MIC, Ent faecalis (Enterococcus faecalis) was greater than 32 µg/mL.

For `O=S(=O)([O-])[O-].[O]=[V+2]` [V^4+ (vanadyl sulfate), vanadyl sulfate, reference compound], the “MIC” value (Helicobacter pylori) was greater than 32 µg/mL.

For `[Cl-].[Cl-].[Zn+2]` [Zn^2+], the MIC, E. coli (Echerichia coli) is listed as greater than 32 µg/mL, the MIC, Staphylococcus (aureus or Oxford Staph) (Staphylococcus aureus) is listed as greater than 32 µg/mL and the “MIC, Pseudomonas aeruginosa (footnote a)” value (Pseudomonas aeruginosa [2]) is listed as 1.7^a. For the same compound, the MIC, Klebsiella (Klebsiella) was greater than 32 µg/mL, the “MIC, Staphylococcus (aureus or Oxford Staph) (footnote a)” value [3] was 17^a and the MIC, Pseudomonas aeruginosa (Pseudomonas aeruginosa [1]) was greater than 32 µg/mL. For the same compound, the “Average Selectivity Ratio” value (Helicobacter pylori) was 0.76, the “MIC” value (Helicobacter pylori) was greater than 32 µg/mL and the “MIC, H. pylori” value (Helicobacter pylori) was >32/32. The “MIC, H. pylori, first of two values” (Helicobacter pylori) was >32/32, the “MIC, E. coli (footnote a)” value (E. coli) was 17^a and the MIC, Ent faecalis (Enterococcus faecalis) was greater than 32 µg/mL.

For `CC[C@H]1OC(=O)[C@H](C)[C@@H](O[C@H]2C[C@@](C)(OC)[C@@H](O)[C@H](C)O2)[C@H](C)[C@@H](O[C@@H]2O[C@H](C)C[C@H](N(C)C)[C@H]2O)[C@](C)(OC)C[C@@H](C)C(=O)[C@H](C)[C@@H](O)[C@]1(C)O` [clarithromycin], the MIC50 (H. pylori [4]) is given as 0.03 µg/mL (≈ 0.0401 µM), the eradication of infections (H. pylori [5]; in combination with metronidazole) is given as “about 70%” and the eradication of infections (H. pylori [5]; monotherapy) is given as “about 34%”. For the same compound, the eradication of infections (H. pylori [5]; triple therapy with a PPI and either metronidazole or amoxycillin) was 85-95%.

For `N[C@@H](CS)C(=O)O` [cysteine, reference compound], the “effect on the MIC of cobalt against H. pylori” value (Helicobacter pylori) was “not to affect the MIC of cobalt against H. pylori”.

In the case of `CSCC[C@H](N)C(=O)O` [methionine, reference compound], the “effect on the MIC of cobalt against H. pylori” value (Helicobacter pylori) is reported as “not to affect the MIC of cobalt against H. pylori”.

In the case of Vitamin B12 [reference compound], the “activity against H. pylori” value (Helicobacter pylori; strongly bound cobalt complex) is reported as “greatly reduced activity”.
